# Results published in US20080306166A1, “Compositions and Methods For Treatment of Disorders of Protein Aggregation” (priority 2004, published 2008).
# Entries after “also recorded” stand apart in the source; their conditions may differ. Marks after values point to notes of the source that are not given here.
# Tests used:
# [1] = test system: Aβ oligomers; details: added pre-cond, positive control, previously shown; cited from earlier work
# [2] = test system: TgCRND8 mice; assay: Morris Water Maze spatial reference memory test in TgCRND8 mice; type: in vivo, mouse
# Description: Mice. […] This initial dosage was chosen based upon the dosage of myo-cyclohexanehexyl (6-18 grams/day/adult or 86-257 mg/Kg/day) that is typically administered to human patients for various psychiatric disorders. […] A cohort of animals (n=10 mice per treatment arm) entered the study at five months of age, and outcomes were then analyzed after one month of treatment. The body weight, coat characteristics and in cage behaviour were monitored. Mannitol was used as a negative control for potential alterations in caloric intake. All experiments were performed according to the Canadian Council on Animal Care guidelines. Behavioural tests: Morris Water Maze testing was performed as previously described. After non-spatial pre-training, mice underwent place discrimination training for 5 days with 4-trials per day, followed by a cued visible platform to rule out general motivational, learning deficits and motor problems, and a probe trial to evaluate memory. […] Open field test for motor activity was preformed as described previously. Duration of walking, pausing and grooming were analyzed as indices of spontaneous locomotor activity. Sensorimotor function was examined with an Economex™ accelerating rotarod (Columbus Instruments, Columbus, Ohio), as described elsewhere. The rod was set to accelerate at a rate of 0.2 r.p.m./s, from an initial, constant speed of 5 r.p.m. Latency to fall was recorded in four daily trials, conducted at 30 min intervals. All mice were trained for seven days before testing. The test day performance score for each animal was obtained by summing its latency to fall over the four trials. Cerebral amyloid burden. Brains were removed and one hemisphere was fixed in 4% paraformaldehyde and embedded in paraffin wax in the mid sagittal plane. To generate sets of systematic uniform random sections, 5 μm serial sections were collected across the entire hemisphere. Sets of sections at 50 μm intervals were used for analyses (10-14 sections/set). Plaques were identified after antigen retrieval with formic acid, and incubation with primary anti-AD antibody (Dako M-0872), followed by secondary antibody (Dako StreptABCcomplex/horseradish kit). End products were visualized with DAB and were counter-stained with luxol fast blue. Amyloid plaque burden was assessed with Leco IA-3001 image analysis software interfaced with Leica microscope and Hitachi KP-M1U CCD video camera. Openlab imaging software (Improvision, Lexington, Mass.) was then used to convert micrographs to binary images for plaque number and plaque area determinations. Vascular amyloid burden was defined as amyloid originating from or surrounding blood vessels and was analysed similarly. Plasma and Cerebral Aβ Content. Hemi-brain samples were homogenized in a buffered sucrose solution, followed by either 0.4% diethylamine/100 mM NaCl for soluble Aβ levels or cold formic acid for the isolation of total Aβ. After neutralization, the samples were diluted and analyzed for Aβ40 and Aβ42 using commercially available kits (BIOSOURCE International). Each hemisphere was analyzed intriplicate and the mean values ±SEM reported. Western blot analyses were performed on all fractions using urea gels for Aβ species analyses. Aβ was detected using 6E10 (BIOSOURCE International) and Enhanced Chemiluminenscence (Amersham). Gliosis Quantitation. Five randomly selected, evenly spaced, sagittal sections were collected from paraformaldehyde-fixed and frozen hemispheres of treated and control mice. […]
# [3] = test system: TgCRND8 mice; assay: Cerebral amyloid plaque burden (anti-Aβ immunostaining, image analysis); type: in vivo, mouse; details: TgCRND8 mice
# Description: Mice. […] This initial dosage was chosen based upon the dosage of myo-cyclohexanehexyl (6-18 grams/day/adult or 86-257 mg/Kg/day) that is typically administered to human patients for various psychiatric disorders. […] A cohort of animals (n=10 mice per treatment arm) entered the study at five months of age, and outcomes were then analyzed after one month of treatment. The body weight, coat characteristics and in cage behaviour were monitored. Mannitol was used as a negative control for potential alterations in caloric intake. All experiments were performed according to the Canadian Council on Animal Care guidelines. Behavioural tests: Morris Water Maze testing was performed as previously described. After non-spatial pre-training, mice underwent place discrimination training for 5 days with 4-trials per day, followed by a cued visible platform to rule out general motivational, learning deficits and motor problems, and a probe trial to evaluate memory. […] Open field test for motor activity was preformed as described previously. Duration of walking, pausing and grooming were analyzed as indices of spontaneous locomotor activity. Sensorimotor function was examined with an Economex™ accelerating rotarod (Columbus Instruments, Columbus, Ohio), as described elsewhere. The rod was set to accelerate at a rate of 0.2 r.p.m./s, from an initial, constant speed of 5 r.p.m. Latency to fall was recorded in four daily trials, conducted at 30 min intervals. All mice were trained for seven days before testing. The test day performance score for each animal was obtained by summing its latency to fall over the four trials. Cerebral amyloid burden. Brains were removed and one hemisphere was fixed in 4% paraformaldehyde and embedded in paraffin wax in the mid sagittal plane. To generate sets of systematic uniform random sections, 5 μm serial sections were collected across the entire hemisphere. Sets of sections at 50 μm intervals were used for analyses (10-14 sections/set). Plaques were identified after antigen retrieval with formic acid, and incubation with primary anti-AD antibody (Dako M-0872), followed by secondary antibody (Dako StreptABCcomplex/horseradish kit). End products were visualized with DAB and were counter-stained with luxol fast blue. Amyloid plaque burden was assessed with Leco IA-3001 image analysis software interfaced with Leica microscope and Hitachi KP-M1U CCD video camera. Openlab imaging software (Improvision, Lexington, Mass.) was then used to convert micrographs to binary images for plaque number and plaque area determinations. Vascular amyloid burden was defined as amyloid originating from or surrounding blood vessels and was analysed similarly. Plasma and Cerebral Aβ Content. Hemi-brain samples were homogenized in a buffered sucrose solution, followed by either 0.4% diethylamine/100 mM NaCl for soluble Aβ levels or cold formic acid for the isolation of total Aβ. After neutralization, the samples were diluted and analyzed for Aβ40 and Aβ42 using commercially available kits (BIOSOURCE International). Each hemisphere was analyzed intriplicate and the mean values ±SEM reported. Western blot analyses were performed on all fractions using urea gels for Aβ species analyses. Aβ was detected using 6E10 (BIOSOURCE International) and Enhanced Chemiluminenscence (Amersham). Gliosis Quantitation. Five randomly selected, evenly spaced, sagittal sections were collected from paraformaldehyde-fixed and frozen hemispheres of treated and control mice. Sections were immunolabelled for astrocytes with anti-rat GFAP IgG2a, (Dako; diluted 1:50) and for microglia with anti-rat CD68 IgG2b (Dako; 1:50).
# [4] = molecular target: T1, Aβ42 (Homo sapiens, UniProt P05067); assay: Plasma Aβ42 levels; type: in vivo, mouse; details: TgCRND8 mice, 28 days of therapy at five months of age
# T1 construct: analyzed for Aβ40 and Aβ42 using commercially available kits; from tissue; host or cells: TgCRND8 transgenic mice: hemi-brain (A3) and plasma (A5)
# T1 sequence (P05067 672-713): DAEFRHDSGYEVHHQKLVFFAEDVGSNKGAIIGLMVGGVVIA
# Description: (§1) Mice. […] This initial dosage was chosen based upon the dosage of myo-cyclohexanehexyl (6-18 grams/day/adult or 86-257 mg/Kg/day) that is typically administered to human patients for various psychiatric disorders. […] A cohort of animals (n=10 mice per treatment arm) entered the study at five months of age, and outcomes were then analyzed after one month of treatment. The body weight, coat characteristics and in cage behaviour were monitored. Mannitol was used as a negative control for potential alterations in caloric intake. All experiments were performed according to the Canadian Council on Animal Care guidelines. Behavioural tests: Morris Water Maze testing was performed as previously described. […] Duration of walking, pausing and grooming were analyzed as indices of spontaneous locomotor activity. […] Latency to fall was recorded in four daily trials, conducted at 30 min intervals. […] Amyloid plaque burden was assessed with Leco IA-3001 image analysis software interfaced with Leica microscope and Hitachi KP-M1U CCD video camera. […] Vascular amyloid burden was defined as amyloid originating from or surrounding blood vessels and was analysed similarly. […] After neutralization, the samples were diluted and analyzed for Aβ40 and Aβ42 using commercially available kits (BIOSOURCE International). Each hemisphere was analyzed intriplicate and the mean values ±SEM reported. […] Gliosis Quantitation. […]
# [5] = test system: TgCRND8 mice; details: mouse, in vivo
# Description: as §1
# [6] = test system: Aβ oligomers; assay: IP/Western blot of Aβ oligomers in 7PA2 conditioned medium; type: cell-based, human
# Description: (§2) Preparation of conditioned media: CHO— or 7PA2 cells were grown to ˜90% confluency. The cells were washed 1× in serum-free DMEM, then incubated overnight (˜15 hrs) in 4 ml/10 cm dish in serum-free DMEM, pen/strep, 1-glutamine with/without AZD-103. The following day, the conditioned media (CM) was collected, spun at 1000×g and treated with complete protease inhibitors (in mg/ml 1 leupeptin, 1 pepstatin, 0.1 aprotinin, 40 EDTA, and 2 mM 1/10 phenantroline) for biochemistry experiments or cell culture compatible protease inhibitors (Sigma P1860 1:1000) for electrophysiology experiments. The CM was stored at −80° C. until sufficient volumes were collected to complete a “batch”—typically ˜300 ml. […] The resulting concentrate was pooled, aliquoted in 1 ml fractions, and stored at −80° C. […] Therefore, for any given set of experiments (i.e. dose response curve, time curve, etc), a single batch is prepared and compared to 7PA2 alone within that batch.
# IP/Western blots: 8 ml of 7PA2 CM were precleared with 40 μl of protein A agarose for 30 min. The beads were spun down, and […] of the polyclonal anti-Aβ antibody R1282 was added to the supernatant with an additional 40 μl of protein A agarose. These samples were nutated at 4° C. overnight. The beads were washed with a series of buffers 0.5 STEN (sodium chloride, tris, EDTA, NP-40), SDS STEN, STEN. 2× tricine sample buffer was added to the washed beads, which were then boiled, centrifuged, and the resulting supernatant loaded onto 10-20% tricine gels. The proteins were then transferred to nitrocellulose, and probed with the anti-Aβ antibody 6E10.
# [7] = test system: rats; assay: Alternating Lever Cyclic Ratio (ALCR) test after ICV Aβ oligomers; type: in vivo, rat
# Description: The Aβ oligomers are naturally produced by cells transfected with genes that over-produce the amyloid precursor protein (APP). […] In addition, oligomeric Aβ is extracted from brain homogenate taken from transgenic mice (Tg2576) transfected with the Swedish APP mutation. […] These purified oligomeric forms of Aβ, at physiological concentrations relevant to those found in AD, are injected into the rat's lateral ventricle through an indwelling cannula while the animals are awake and moving. Two hours after injection the rats are tested under sensitive cognitive assay. The assay, the Alternating Lever Cyclic Ratio (ALCR) test, has proven to be much more sensitive than previously published methods for measuring drug effects on cognitive function. In this task, rats must learn a complex sequence of lever-pressing requirements in order to earn food reinforcement in a two-lever experimental chamber. Subjects must alternate between two levers by switching to the other lever after pressing the first lever enough to get food reward. The exact number of presses required for each food reward changes, first increasing from 2 responses per food pellet up to 56 presses per food pellet, then decreasing back to 2 responses per pellet. Intermediate values are based on the quadratic function, x^2−x. One cycle is an entire ascending and descending sequence of these lever press requirements (e.g., 2, 6, 12, 20, 30, 42, 56, 56, 42, 30, 20, 12, 6, and 2 presses per food reward). Six such full cycles are presented during each daily session. […] Oligomeric Aβ: […] These cells secrete oligomeric Aβ into the culture medium (CM) at physiological levels. Aβ oligomers was also derived from Tg2576 mouse brain and purified by size exclusion chromatography. Samples of oligomeric Aβ were characterized by Western Blot Analysis. Appropriate control compounds were produced and tested for each active Aβ oligomeric configuration. Rats: Forty (40) rats were trained under ALCR for approximately 3 months until their error rates are stable. Training sessions were conducted 5 days each week. Surgery: After training, all rats received a single 28 ga. cannula that was permanently affixed to the skull, and aimed at the lateral ventricle (divided equally between left and right). Rats were allowed 5 days to recover from surgery. Administration: In vivo administration of AZD103 to rats was performed by dissolving AZD103 into drinking water. Different concentrations were prepared, and the average daily water intake used to target specific average daily dose levels. These dose levels were therefore approximate. Testing: AZD 103 was tested against Aβ oligomers known to disrupt cognitive function. […] AZD 103 was incubated with the injectate medium containing Aβ oligomers prior to assessing it's affect on ALCR. […] Treatments were assessed in the following order: • 1. […] ICV AZD 103 alone • 3. […] Error Rate Analysis: All error rates under AZD 103 were compared to baseline error rates consisting of at least 3-4 non-treatment days prior to injections. This is a repeated measure within subject design that produces maximum power to detect changes in the error rates. Histology: Upon completion of the study, 20 rat brains were banked. The other 20 brains were evaluated histologically for inflammation, gliosis and cannula placement. […] Serial hematoxylin and eosin stained sections were used to evaluate for cannula placement. These same hemibrains were evaluated for inflammation (neutrophils/lymphocytes/macrophages), gliosis (microglial and astrocytic) and neuron loss using standard hematoxylin and eosin staining as well as specific markers for gliosis as needed.
# [8] = test system: 7PA2 cells; assay: Toxicity observations in 7PA2 cells and LTP controls; type: cell-based, Chinese Hamster; details: APPs expression, LTP in CHO-/AZD-103 conditions
# Description: as §2
# [9] = test system: TgCRND8 mice; assay: Two-month treatment of TgCRND8 mice, cognition and pathology; type: in vivo, mouse; details: TgCRND8 mice treated for 2 months, ending at 7 months of age
# Description: Scyllo-inositol was also administered to […]8 mice for 2 months, ending at 7 months of age.
# [10] = six month old TgCRND8 mice, 28 days treatment from 5 months
# [11] = 28 day course at 5 months of age, vs untreated
# [12] = oral, 28 days from 5 months of age, 6 months of age, listed as Scyllo-cyclohexanehexol
smiles,measurement,setting,value
Oc1cccc(Nc2ccc(Nc3cccc(O)c3)nn2)c1 [RS0406],production of Aβ oligomers,[1],reduces the production of oligomers
"OC1C(O)C(O)C(O)C(O)C1O (stereo not shown) [scyllo-cyclohexanehexyl, 1,3,5/2,4,6-(scyllo-) cyclohexanehexyl]","probe trial, % time in target quadrant",[2]; separate cohort of treated TgCRND8 mice vs non-Tg littermates,not statistically different from non-Tg littermates
same,spatial learning performance compared to non-Tg littermates,[2]; [10],indistinguishable from that of their non-Tg littermates
same,spatial learning performance compared to untreated TgCRND8 littermates,[2]; [10],significantly better behavioural performance compared to untreated TgCRND8 mice; also recorded: significantly better than untreated TgCRND8 littermates
same,"percent area of the brain covered by plaques, reduction",[3]; [11],14±0.5%
same,plaque number reduction,[3]; [11],13±0.3%
same,plaque size reduction,[3]; [11],16±0.4%
same,plaque burden in the hippocampus,"[3]; one month of treatment, anti-Aβ antibody staining",lower plaque burden
same,Mean Plaque Size,[3]; [12],336 ± 6* μm^2
same,Total Plaque Area,[3]; [12],420027 ± 14986* μm^2
same,Total Plaque Count,[3]; [12],1260 ± 27
same,Plasma Aβ42 levels,[4],990 ± 73 pg/mL
same,grooming or activity in the open field test,[5],no effect on grooming or activity
same,"sensorimotor function, Rotarod",[5],no difference
same,Aβ dimer on Western blots,[6]; applied to 7PA2 CM (post-cond),seemed unaffected
same,Aβ trimer on Western blots,"[6]; applied to 7PA2 CM (post-cond), 1.25 μM",reduced the detectability of the Aβ trimer
same,"Aβ dimer and trimer levels, dose response by Western blot","[6]; pre-cond and post-cond, measured absolutely and normalized to monomer",appeared to reduce dimer and trimer levels
same,impact on ALCR performance without oligomers,[7]; AZD103 administered without oligomers,no impact on performance
same,Switching % errors,"[7]; ICV AZD103 alone, baseline = 100",99%
same,Switching % errors,"[7]; ICV Aβ oligomers incubated ex vivo with AZD103, baseline = 100",95%
same,Switching % errors,[7]; ICV oligomers after 4 days PO 30 mg/kg/day in drinking water,109%
same,Switching % errors,[7]; ICV oligomers after 4 days PO 100 mg/kg/day in drinking water,100%
same,Switching % errors,[7]; ICV oligomers after 4 days PO 300 mg/kg/day in drinking water,109%
same,toxicity,[8],No direct evidence of AZD-103 toxicity
same,effects on cognition and pathology,[9],Sustained effects both on cognition and pathology were observed
